Measurements taken from US11179368B2, “Substituted indoline derivatives as dengue viral replication inhibitors” (JANSSEN PHARMACEUTICALS, INC., priority 2017, dated 2021).

Experiments:
DENV-2 16681 strain = assay: DENV-2 antiviral assay (eGFP-labeled virus in Vero cells); format: cell-based, Dengue virus; settings: for EC50: DENV-2 16681 eGFP, Vero cells, MOI 0.5, 3 days; for SI: SI=CC50/EC50, DENV-2 antiviral assay
in vitro = settings: African green monkey
[1] = Dengue virus, DENV2, Vero, 72 h

SMILES	EC50 (DENV-2 16681 strain)	SI (DENV-2 16681 strain)	CC50 (in vitro)	EC50 (DENV-2 16681 strain; [1])
COc1cc(NC(C(=O)N2CCc3ccc(OC(F)(F)F)cc32)c2ccc(F)cc2OCCO)cc(S(C)(=O)=O)c1 (single isomer, unassigned) [Compound 3A]	570 nM	19	11000 nM	
COc1cc(NC(C(=O)N2CCc3ccc(C(F)(F)F)cc32)c2ccc(Cl)cc2OCCCC(=O)O)cc(S(C)(=O)=O)c1 (single isomer, unassigned) [Compound 7A]	69 nM	165	11000 nM	
COc1cc(NC(C(=O)N2CCc3ccc(C(F)(F)F)cc32)c2ccc(Cl)cc2OCCO)cc(S(C)(=O)=O)c1 (racemic) [Compound 4, 2-(4-chloro-2-(2-hydroxyethoxy)phenyl)-2-((3-methoxy-5-(methylsulfonyl)phenyl)amino)-1-(6-(trifluoromethyl)indolin-1-yl)ethanone]		11600	7700 nM	0.66 nM
COc1cc(NC(C(=O)N2CCc3cc(OC)c(C(F)(F)F)cc32)c2ccc(F)cc2OCCO)cc(S(C)(=O)=O)c1 (racemic) [Compound 2, 2-(4-fluoro-2-(2-hydroxyethoxy)phenyl)-2-((3-methoxy-5-(methylsulfonyl)phenyl)amino)-1-(5-methoxy-6-(trifluoromethyl)indolin-1-yl)ethanone]		13700	12000 nM	1 nM
COc1cc(NC(C(=O)N2CCc3ccc(OC(F)(F)F)cc32)c2ccc(F)cc2OCCO)cc(S(C)(=O)=O)c1 (racemic) [Compound 3, 2-(4-fluoro-2-(2-hydroxyethoxy)phenyl)-2-((3-methoxy-5-(methylsulfonyl)phenyl)amino)-1-(6-(trifluoromethoxy)indolin-1-yl)ethanone]		10700	7900 nM	0.74 nM
COc1cc(NC(C(=O)N2CCc3ccc(OC(F)(F)F)cc32)c2ccc(Cl)cc2OCCCC(=O)O)cc(S(C)(=O)=O)c1 (single isomer, unassigned) [Compound 9A]	120 nM	93	12000 nM	
COc1cc(NC(C(=O)N2CCc3cc(OC)c(C(F)(F)F)cc32)c2ccc(Cl)cc2OCCCC(=O)O)cc(S(C)(=O)=O)c1 (racemic) [Compound 8, 4-(5-chloro-2-(1-((3-methoxy-5-(methylsulfonyl)phenyl)amino)-2-(5-methoxy-6-(trifluoromethyl)indolin-1-yl)-2-oxoethyl)phenoxy)butanoic acid]		7460	14000 nM	1.9 nM
COc1cc(NC(C(=O)N2CCc3ccc(C(F)(F)F)cc32)c2ccc(Cl)cc2OCCCC(=O)O)cc(S(C)(=O)=O)c1 (racemic) [Compound 7, 4-(5-chloro-2-(1-((3-methoxy-5-(methylsulfonyl)phenyl)amino)-2-oxo-2-(6-(trifluoromethyl)indolin-1-yl)ethyl)phenoxy)butanoic acid]		21800	13000 nM	0.58 nM
COc1cc(NC(C(=O)N2CCc3ccc(OC(F)(F)F)cc32)c2ccc(Cl)cc2OCCCC(=O)O)cc(S(C)(=O)=O)c1 (racemic) [Compound 9, 4-(5-chloro-2-(1-((3-methoxy-5-(methylsulfonyl)phenyl)amino)-2-oxo-2-(6-(trifluoromethoxy)indolin-1-yl)ethyl)phenoxy)butanoic acid]		40200	12000 nM	0.31 nM
COc1cc(NC(C(=O)N2CCc3cc(OC)c(C(F)(F)F)cc32)c2ccc(Cl)cc2OCCO)cc(S(C)(=O)=O)c1 (racemic) [Compound 5, 2-(4-chloro-2-(2-hydroxyethoxy)phenyl)-2-((3-methoxy-5-(methylsulfonyl)phenyl)amino)-1-(5-methoxy-6-(trifluoromethyl)indolin-1-yl)ethanone]		15700	11000 nM	0.7 nM
COc1cc(NC(C(=O)N2CCc3cc(OC)c(C(F)(F)F)cc32)c2ccc(Cl)cc2OCCCC(=O)O)cc(S(C)(=O)=O)c1 (single isomer, unassigned) [Compound 8A]	95 nM	126	12000 nM	
COc1cc(NC(C(=O)N2CCc3ccc(C(F)(F)F)cc32)c2ccc(F)cc2OCCO)cc(S(C)(=O)=O)c1 (racemic) [Compound 1, 2-(4-fluoro-2-(2-hydroxyethoxy)phenyl)-2-((3-methoxy-5-(methylsulfonyl)phenyl)amino)-1-(6-(trifluoromethyl)indolin-1-yl)ethan-1-one]		4397	14000 nM	3.2 nM
COc1cc(NC(C(=O)N2CCc3ccc(OC(F)(F)F)cc32)c2ccc(Cl)cc2OCCO)cc(S(C)(=O)=O)c1 (racemic) [Compound 6, 2-(4-chloro-2-(2-hydroxyethoxy)phenyl)-2-((3-methoxy-5-(methylsulfonyl)phenyl)amino)-1-(6-(trifluoromethoxy)indolin-1-yl)ethanone]		7070	3600 nM	0.43 nM
COc1cc(NC(C(=O)N2CCc3cc(OC)c(C(F)(F)F)cc32)c2ccc(Cl)cc2OCCO)cc(S(C)(=O)=O)c1 (single isomer, unassigned) [Compound 5A]	76 nM	210	16000 nM	
